Converted amounts (≈) assume the structure as drawn. Where a SMILES comes first, the peptide text is derived from it. Where no end group is shown, it is not given here.

Data set [1] relates to C500: E. coli, antibiotic strain. It is filed as cell-based. The settings on record: for MIC C500: antibiotic strain. From the text:
(§1) The bacterial strains used were E. coli C498, E. coli C500, Escherichia coli UB1005 and its antibiotic supersusceptible derivative DC2 (22); a clinical isolate of Staphylococcus epidermidis (C621); coryneform bacterial strain Corynebacterium xerosis (C875); and E. coli ATCC 25922, Staphylococcus aureus ATCC 25923, Enterococcus faecalis ATCC 29212, Bacillus subtilis ATCC 6633 and Pseudomonas aeruginosa ATCC 27853, all from American Type Culture Collection.
(§2) Peptide antibacterial activity was assessed by the method of R. Hancock et al. (Wu & Hancock (1999), J. Biol. Chem., v. 274, pp. 29-35). Test strains of bacteria from Mueller Hinton agar (MHA) plates were inoculated into 5 ml Mueller Hinton Broth (MHB) in tubes and grown overnight at 37° C. on a shaker (180 rpm). Serial dilutions of test peptides (at 10 times the required test concentrations) were made in 0.01% acetic acid, 0.2% BSA, in polypropylene or coated glass tubes as follows: the test peptide was (a) dissolved in distilled water at 20 times the required maximum concentration (enough final volume for all tests to be performed on a given day); (b) diluted into an equal volume of 0.02% acetic acid, 0.4% BSA to give 10 times the required maximum concentration; (c) serial doubling dilutions were performed in 0.01% acetic acid, 0.2% BSA to provide serial dilutions of peptides at 10 times the required test concentrations, e.g., 640, 320, 160, . . . 2.5 μg/ml. (No deleterious effects of long-term storage of peptides in these media have been detected). Overnight bacterial cultures were diluted in MHB to give 2−7×10^5 colony forming units/ml. Bacterial suspension (100 μl) was dispensed in each well; controls without bacteria were maintained in parallel. To each well was added 11 μl of 10× test peptide and plates were incubated at 37° C. for 18-24 hours, and checked again at 40-48 hours. Plates were read visually and at 600 nm in a microplate reader (Molecular Devices).
(§3) were synthesized. The antibacterial activity of these peptides was determined against both Gram-positive bacteria ([…], Corynebacterium xerosis) and Gram-negative bacteria (various strains of E. coli). The results are shown in Table 2, along with the average hydrophobicity of each peptide, calculated as described herein.

The subject of data set [2] is C498: E. coli, wild type strain. It is filed as cell-based. The following applies: for MIC C498: wild type strain.
Text: as §1, §2, §3

The subject of data set [3] is Corynebacterium xerosis (C875). The data set is classed as cell-based.
Text: as §1, §2, §3
(§4) A further number of the peptides of the invention were tested for antimicrobial activity against a range of Gram-positive and Gram-negative bacteria by the assay described immediately before Example 1.

For data set [4], the system named is Staphylococcus epidermidis (C621). The data set is classed as cell-based.
Text: as §1, §2, §3, §4

In another data set the test system is E. coli UB1005. It is filed as cell-based, Escherichia coli. The settings on record: UB1005.
Text: as §1, §2, §4

For another data set, the system named is E. coli DC2. Briefly: Assay of antibacterial activity (MIC), E. coli DC2. It is filed as cell-based, Escherichia coli. The settings on record: Table 3; Gram-negative.
Text: as §1, §2, §4

Data set [5] can be described thus: Hydrophobicity (hydropathy) from reverse-phase HPLC retention scale. The data set is classed as physicochemical. Set-up: key to Average Hydrophobicity of Core Sequence / Mean Core segment Hydrophobicity: arithmetic average of Table 1 hydropathy values of constituent residues; key to Hydropathy: hydropathy scale from HPLC retention times of model peptides (Table 1). The settings on record: for Average Hydrophobicity of Core Sequence: Table 2, calculated from Table 1 hydropathy values. From the text:
The “hydrophobicity value” of an amino acid residue means the hydrophobicity value of that residue as shown in Table 1 or as calculated by the method described herein.
The “hydrophobicity value” of an amino acid sequence or peptide means the arithmetic average of the individual hydrophobicity values of the constituent amino acid residues of the sequence.
Various hydrophobicity scales for proteins and amino acids have been described in the literature but the inventors have established the hydrophobicity scale of Table 1 based on the retention times on HPLC of a series of hydrophobic model peptides, as described in Liu and Deber (1998), Biopolymers (Peptide Science), v. 47, pp. 41-62).
The hydrophobicity value shown for each amino acid in Table 1 as “hydropathy” may be used as the hydrophobicity value for that amino acid in any peptide whose hydrophobicity value has to be calculated. The “average hydrophobicity” of a peptide containing amino acids shown in Table 1 is calculated by determining the arithmetic average of the Table 1 “hydropathy” values for the constituent amino acids of the sequence.
Peptides in accordance with the invention may also include other amino acids. For an amino acid not included in Table 1, the hydrophobicity value may be determined by the same method as described herein for obtaining the values of Table 1. For example, a peptide such as KKAAAXAAAAAXAAXAAXAAAKKKK-amide (Sequence ID No: 1) may be synthesized, where X is the amino acid whose hydrophobicity value is to be determined, and the retention time of the peptide on HPLC is determined, as described in the Examples. Similar peptides where X is Lys or Phe are also prepared and their HPLC retention times determined. The retention time, Rx, is converted to the hydropathy value H for the selected amino acid using the equation
H=(10×ΔtRx-Lys/ΔtRPhe-Lys)−5.00
where ΔtRx-Lys=retention time difference in minutes between Rx and the retention time of the most hydrophilic peptide tested (X=Lys) and where ΔtRPhe-Lys=retention time difference in minutes between the most hydrophobic peptide tested (X=Phe) and the most hydrophilic (X=Lys).
The retention time of each peptide was determined on a C4 reversed-phase column (4.6×250 mm, 300 A pore size, 10 μ particle size). Equal amounts of each peptide were injected into the column and eluted at a flow rate of 1 mL/min, utilizing a linear AB gradient (2% B/min), where buffer A was 0.1% TFA/ddH2O, and buffer B was 0.1% TFA/acetonitrile. The retention time of each peptide reported here was the average of triplicate measurements.

A further data set has as its system Rabbit RBC. The data set is classed as cell-based. The method, then: (§5) Erythrocytes from heparinized rabbit or human blood were washed three times with phosphate-buffered saline (PBS; 5 mM phosphate buffer, 0.14 M saline, pH 7.3), and centrifuged at 1000×g for 15 min at 4° C. The erythrocytes were diluted with PBS to 4% (v/v). Dilutions of the peptides in PBS were plated in 100 μl volumes in microtitre plates (Costar 3790, polypropylene) together with 100μl of the erythrocyte suspension. PBS was used as control and 100% lysis was determined in 0.1% Triton X-100. The plates were incubated at 37° C. for 1 h and then centrifuged at 1000×g for 5 min. 100 μl aliquots of the supernatant were transferred to microtitre plates (Nunc, polystyrene), and the release of hemoglobin was monitored by measurement of the absorbance at 540 nm in a microplate reader. The results are shown in Table 6, for peptide concentrations of […]. With only one or two exceptions, little or no hemolysis was seen.

Another data set concerns Human RBC. The data set is classed as cell-based. The method, then:
as §5

On to `CC[C@H](C)[C@H](NC(=O)[C@H](C)NC(=O)[C@H](C)NC(=O)[C@H](C)NC(=O)[C@H](CCCCN)NC(=O)[C@@H](N)CCCCN)C(=O)N[C@@H](C)C(=O)N[C@@H](C)C(=O)N[C@@H](C)C(=O)N[C@@H](C)C(=O)N[C@@H](C)C(=O)N[C@H](C(=O)N[C@@H](C)C(=O)N[C@@H](C)C(=O)N[C@@H](Cc1c[nH]c2ccccc12)C(=O)N[C@@H](C)C(=O)N[C@@H](C)C(=O)N[C@H](C(=O)N[C@@H](C)C(=O)N[C@@H](C)C(=O)N[C@@H](C)C(=O)N[C@@H](CCCCN)C(=O)N[C@@H](CCCCN)C(=O)N[C@@H](CCCCN)C(=O)N[C@@H](CCCCN)C(N)=O)[C@@H](C)CC)[C@@H](C)CC` [Peptide I25] (H-KKAAAIAAAAAIAAWAAIAAAKKKK-NH2; N-terminus assumed), for which the “MIC C500” value in [1] was 10 µM (≈ 23.8 µg/mL). Also, the “MIC C498” value in data set [2] was 10 µM (≈ 23.8 µg/mL). Moreover, in [3], the “MIC C. xerosis C875” value was less than 0.25 µM. Further, in data set [4], the “MIC C621” value turned out to be 5 µM (≈ 11.9 µg/mL) and the “MIC S. epidermidis C621” value stood at 4 µM (≈ 9.51 µg/mL). For the same compound, in the data set on E. coli UB1005, the “MIC E. coli UB1005” value was more than 32 µM. For the same compound, the “MIC E. coli DC2” value against E. coli DC2 amounted to 16 µM (≈ 38 µg/mL). For the same compound, the “Mean residue hydropathy of X-residue peptide” value in [5] (Table 1) is reported as 1.09. For the same compound, the Hydropathy in [5] (Table 1, of the X-residue, from HPLC retention of KKAAAXAAAAAXAAWAAXAAAKKKK-amide peptides) was found to be 4.41. Moreover, the “Average Hydrophobicity of Core Sequence” value in data set [5] is recorded as 1.09. For the same compound, in data set [5] (Table 3), the “Mean Core segment Hydrophobicity” value came out at 1.09.

Turning to `C[C@H](NC(=O)[C@H](C)NC(=O)[C@H](C)NC(=O)[C@H](Cc1c[nH]c2ccccc12)NC(=O)[C@H](C)NC(=O)[C@H](C)NC(=O)[C@H](C)NC(=O)[C@H](CCCCN)NC(=O)[C@@H](N)CCCCN)C(=O)N[C@@H](C)C(=O)N[C@@H](C)C(=O)N[C@@H](Cc1c[nH]c2ccccc12)C(=O)N[C@@H](C)C(=O)N[C@@H](C)C(=O)N[C@@H](Cc1c[nH]c2ccccc12)C(=O)N[C@@H](C)C(=O)N[C@@H](C)C(=O)N[C@@H](Cc1c[nH]c2ccccc12)C(=O)N[C@@H](C)C(=O)N[C@@H](C)C(=O)N[C@@H](C)C(=O)N[C@@H](CCCCN)C(=O)N[C@@H](CCCCN)C(=O)N[C@@H](CCCCN)C(=O)N[C@@H](CCCCN)C(N)=O` [Peptide W25] (H-KKAAAWAAAAAWAAWAAWAAAKKKK-NH2; N-terminus assumed), in data set [1], the “MIC C500” value was 3 µM (≈ 7.79 µg/mL). Besides, the “MIC C498” value in [2] came to 6 µM (≈ 15.6 µg/mL). Moreover, in [3], the “MIC C875” value came to 0.2 µM (≈ 0.519 µg/mL) and the “MIC C. xerosis C875” value was less than 0.25 µM. Besides, in [4], the “MIC C621” value stood at 0.7 µM (≈ 1.82 µg/mL) and the “MIC S. epidermidis C621” value is less than 0.25 µM. Further, the “MIC E. coli UB1005” value against E. coli UB1005 amounted to 16 µM (≈ 41.6 µg/mL). In addition, the “MIC E. coli DC2” value against E. coli DC2 worked out at 8 µM (≈ 20.8 µg/mL).

On to KKATALVGAASLTAWVGLASAKKKK-NH2, for which the “MIC C500 (active/inactive)” value in [1] (Table 2, class symbols) is listed as “+”. In addition, in [2] (Table 2, class symbols), the “MIC C498 (active/inactive)” value is recorded as “+”. Further, in data set [3] (Table 2, class symbols), the “MIC C875 (active/inactive)” value is recorded as “+”. For the same compound, the “MIC C621 (active/inactive)” value in data set [4] (Table 2, class symbols) was “+”. For the same compound, the “Average Hydrophobicity of Core Sequence” value in [5] is listed as 0.62.

For `C[C@H](NC(=O)[C@H](C)NC(=O)[C@H](C)NC(=O)[C@H](C)NC(=O)[C@H](C)NC(=O)[C@H](C)NC(=O)[C@H](C)NC(=O)[C@H](CCCCN)NC(=O)[C@@H](N)CCCCN)C(=O)N[C@@H](C)C(=O)N[C@@H](C)C(=O)N[C@@H](C)C(=O)N[C@@H](C)C(=O)N[C@@H](C)C(=O)N[C@@H](Cc1c[nH]c2ccccc12)C(=O)N[C@@H](C)C(=O)N[C@@H](C)C(=O)N[C@@H](C)C(=O)N[C@@H](C)C(=O)N[C@@H](C)C(=O)N[C@@H](C)C(=O)N[C@@H](CCCCN)C(=O)N[C@@H](CCCCN)C(=O)N[C@@H](CCCCN)C(=O)N[C@@H](CCCCN)C(N)=O` [Peptide A25] (H-KKAAAAAAAAAAAAWAAAAAAKKKK-NH2; N-terminus assumed), the “MIC C. xerosis C875” value in data set [3] came to 2 µM (≈ 4.5 µg/mL). Further, the “MIC S. epidermidis C621” value in [4] was more than 64 µM. Also, the “MIC E. coli UB1005” value with E. coli UB1005 was more than 64 µM. Besides, the “MIC E. coli DC2” value in the data set on E. coli DC2 was more than 64 µM. In the data set on Rabbit RBC, the “Rabbit RBC (% lysis) 50 μM” value stood at 0 % lysis and the “Rabbit RBC (% lysis) 200 μM” value is 1 % lysis.

Take `C[C@H](NC(=O)[C@H](C)NC(=O)[C@H](C)NC(=O)[C@H](CO)NC(=O)[C@H](C)NC(=O)[C@H](C)NC(=O)[C@H](C)NC(=O)[C@H](CCCCN)NC(=O)[C@@H](N)CCCCN)C(=O)N[C@@H](C)C(=O)N[C@@H](C)C(=O)N[C@@H](CO)C(=O)N[C@@H](C)C(=O)N[C@@H](C)C(=O)N[C@@H](Cc1c[nH]c2ccccc12)C(=O)N[C@@H](C)C(=O)N[C@@H](C)C(=O)N[C@@H](CO)C(=O)N[C@@H](C)C(=O)N[C@@H](C)C(=O)N[C@@H](C)C(=O)N[C@@H](CCCCN)C(=O)N[C@@H](CCCCN)C(=O)N[C@@H](CCCCN)C(=O)N[C@@H](CCCCN)C(N)=O` [Peptide S25] (H-KKAAASAAAAASAAWAASAAAKKKK-NH2; N-terminus assumed): the “MIC C. xerosis C875” value in data set [3] is more than 64 µM. The “MIC S. epidermidis C621” value in data set [4] was more than 64 µM. In addition, the “MIC E. coli UB1005” value with E. coli UB1005 is more than 64 µM. Also, in the data set on E. coli DC2, the “MIC E. coli DC2” value is more than 64 µM. Further, in the data set with Human RBC, the “Human RBC (% lysis) 50 μM” value amounted to 0 % lysis and the “Human RBC (% lysis) 200 μM” value stood at 0 % lysis. In the data set on Rabbit RBC, the “Rabbit RBC (% lysis) 50 μM” value was determined as 0 % lysis and the “Rabbit RBC (% lysis) 200 μM” value was determined as 3 % lysis.
